Like-named read-outs stand apart in the source and are kept apart here. Marks after values point to notes of the source that are not given here.
Tests used:
[1] = target: T1, JBMan (Jack bean α-mannosidase) (Canavalia ensiformis, UniProt C0HJB3); experiment: α-mannosidase inhibition assay with pNP-Man substrate, JBMan; type: biochemical; details: for IC50: 2 mM pNP-Man, pH 5.0, 37 °C
T1 construct: purchased Sigma
T1 sequence (C0HJB3 1-981): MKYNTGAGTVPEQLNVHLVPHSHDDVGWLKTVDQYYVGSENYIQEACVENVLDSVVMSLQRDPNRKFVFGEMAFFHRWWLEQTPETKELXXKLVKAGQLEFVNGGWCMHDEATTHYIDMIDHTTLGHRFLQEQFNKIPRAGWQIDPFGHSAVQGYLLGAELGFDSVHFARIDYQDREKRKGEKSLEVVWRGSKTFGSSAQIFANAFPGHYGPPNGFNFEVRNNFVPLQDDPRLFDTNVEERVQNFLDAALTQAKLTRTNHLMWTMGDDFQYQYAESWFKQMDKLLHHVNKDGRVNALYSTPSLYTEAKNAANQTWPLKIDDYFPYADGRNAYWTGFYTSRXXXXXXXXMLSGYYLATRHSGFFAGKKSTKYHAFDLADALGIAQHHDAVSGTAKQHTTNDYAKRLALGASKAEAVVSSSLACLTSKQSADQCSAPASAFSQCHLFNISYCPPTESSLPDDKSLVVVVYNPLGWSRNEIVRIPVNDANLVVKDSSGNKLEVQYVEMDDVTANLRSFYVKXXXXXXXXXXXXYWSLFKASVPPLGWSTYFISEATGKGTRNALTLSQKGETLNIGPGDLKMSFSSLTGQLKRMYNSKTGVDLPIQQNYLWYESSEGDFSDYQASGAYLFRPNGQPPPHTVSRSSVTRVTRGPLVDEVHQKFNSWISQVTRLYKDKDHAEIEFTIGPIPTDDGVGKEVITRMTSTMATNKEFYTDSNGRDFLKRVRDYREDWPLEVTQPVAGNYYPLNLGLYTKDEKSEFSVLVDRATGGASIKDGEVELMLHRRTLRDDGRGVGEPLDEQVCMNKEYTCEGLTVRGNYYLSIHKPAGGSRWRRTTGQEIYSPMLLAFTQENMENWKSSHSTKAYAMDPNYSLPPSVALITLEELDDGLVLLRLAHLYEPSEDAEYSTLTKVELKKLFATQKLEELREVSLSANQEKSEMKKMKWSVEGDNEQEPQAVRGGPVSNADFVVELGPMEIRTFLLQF
Description: (§1) The enzymes screened included two Golgi types (GMIIb and AMAN-2) and two lysosomal types (LManII and JBMan) (Table 1).
(§2) Recombinant soluble forms of Drosophila melanogaster Golgi (GMIIb) and lysosomal (LManII) α-mannosidases as well as Caenorhabditis elegans Golgi α-mannosidase AMAN-2 were produced in Pichia pastoris and enriched by ammonium sulfate precipitation or nickel chelation chromatography as previously described. The α-mannosidase from Canavalia ensiformis (JBMan) was purchased from Sigma. […]
(§3) GMIIb was assayed in the […]
(§4) presence of 0.5 mM CoCl2.
(§5) The lyophilized derivatives used in the assay were dissolved in DMSO to the final concentration 50 mM and further diluted to a desired concentration in water. These derivatives were preincubated with the enzyme in the buffer for 5 min at rt and the reaction was started by addition of the substrate. The reactions were terminated with two volumes (0.1 mL) of 0.5 M sodium carbonate and the production of p-nitrophenol was measured at 405 nm using a multimode reader Mithras LB943 (Berthold Technologies). The average or representative result of three independent experiments made in duplicate is presented.

[2] = target: T2, LManII (lysosomal α-mannosidase) (Drosophila melanogaster, UniProt Q9VKV1); experiment: α-mannosidase inhibition assay with pNP-Man substrate, LManII; type: biochemical
Description: as §1, §2, §3, §4, §5

[3] = target: T3, GMIIb (Golgi α-mannosidase) (Drosophila melanogaster, UniProt Q9VF33); experiment: α-mannosidase inhibition assay with pNP-Man substrate, GMIIb; type: biochemical
Description: as §1, §2, §3, §4, §5

[4] = target: T4, AMAN-2 (Golgi α-mannosidase II) (Caenorhabditis elegans, UniProt Q2PJ74); experiment: α-mannosidase inhibition assay with pNP-Man substrate, AMAN-2; type: biochemical; details: Dixon plots, pNP-Man 0.5-4 mM, pH 6.0
[5] = target: T4, AMAN-2 (Golgi α-mannosidase II); experiment: as above; type: biochemical; details: for SI [IC50 (JBMan)/IC50 (AMAN-2)]: ratio of IC50 values
Description: as §1
Recombinant soluble forms of Drosophila melanogaster Golgi (GMIIb) and lysosomal (LManII) α-mannosidases as well as Caenorhabditis elegans Golgi α-mannosidase AMAN-2 were produced in Pichia pastoris and enriched by ammonium sulfate precipitation or nickel chelation chromatography as previously described. The α-mannosidase from Canavalia ensiformis (JBMan) was purchased from Sigma. The mannosidase activity of these enzyme preparations were measured using p-nitrophenyl α -D-mannopyranoside ( pNP-Man; Sigma; 100 mM stock in dimethylsulfoxide) as a substrate at 2 mM final concentration in 50 mM acetate buffer of the relevant previously defined optimal pH, GMIIb and AMAN -2 at pH 6.0, LManII at pH 5.2 , and JBMan at pH 5.0) and 0.5 μL of the enzyme (0.05 µg of protein for JBMan), in a total volume of 50 μL for 1–2 h at 37 °C. GMIIb was assayed in the presence of 0.5 mM CoCl2.
as §5

[6] = target: T3, GMIIb (Golgi α-mannosidase); details: ref Kóňa et al. [22]; cited from earlier work
[7] = target: T4, AMAN-2 (Golgi α-mannosidase II); details: cited from earlier work; for IC50: ref Kóňa et al. [22]
[8] = target: T2, LManII (lysosomal α-mannosidase); details: ref Kóňa et al. [22]; cited from earlier work
[9] = target: T1, JBMan (Jack bean α-mannosidase); details: ref Kóňa et al. [22]; cited from earlier work
[10] = 2 mM pNP-Man, pH 5.2, 37 °C, read-out: IC50 LManII
[11] = 2 mM pNP-Man, pH 6.0, 0.5 mM CoCl2, 37 °C, read-out: IC50 GMIIb
[12] = 2 mM pNP-Man, pH 6.0, 37 °C, read-out: IC50 AMAN-2

T3 sequence (Q9VF33 entry or part of it): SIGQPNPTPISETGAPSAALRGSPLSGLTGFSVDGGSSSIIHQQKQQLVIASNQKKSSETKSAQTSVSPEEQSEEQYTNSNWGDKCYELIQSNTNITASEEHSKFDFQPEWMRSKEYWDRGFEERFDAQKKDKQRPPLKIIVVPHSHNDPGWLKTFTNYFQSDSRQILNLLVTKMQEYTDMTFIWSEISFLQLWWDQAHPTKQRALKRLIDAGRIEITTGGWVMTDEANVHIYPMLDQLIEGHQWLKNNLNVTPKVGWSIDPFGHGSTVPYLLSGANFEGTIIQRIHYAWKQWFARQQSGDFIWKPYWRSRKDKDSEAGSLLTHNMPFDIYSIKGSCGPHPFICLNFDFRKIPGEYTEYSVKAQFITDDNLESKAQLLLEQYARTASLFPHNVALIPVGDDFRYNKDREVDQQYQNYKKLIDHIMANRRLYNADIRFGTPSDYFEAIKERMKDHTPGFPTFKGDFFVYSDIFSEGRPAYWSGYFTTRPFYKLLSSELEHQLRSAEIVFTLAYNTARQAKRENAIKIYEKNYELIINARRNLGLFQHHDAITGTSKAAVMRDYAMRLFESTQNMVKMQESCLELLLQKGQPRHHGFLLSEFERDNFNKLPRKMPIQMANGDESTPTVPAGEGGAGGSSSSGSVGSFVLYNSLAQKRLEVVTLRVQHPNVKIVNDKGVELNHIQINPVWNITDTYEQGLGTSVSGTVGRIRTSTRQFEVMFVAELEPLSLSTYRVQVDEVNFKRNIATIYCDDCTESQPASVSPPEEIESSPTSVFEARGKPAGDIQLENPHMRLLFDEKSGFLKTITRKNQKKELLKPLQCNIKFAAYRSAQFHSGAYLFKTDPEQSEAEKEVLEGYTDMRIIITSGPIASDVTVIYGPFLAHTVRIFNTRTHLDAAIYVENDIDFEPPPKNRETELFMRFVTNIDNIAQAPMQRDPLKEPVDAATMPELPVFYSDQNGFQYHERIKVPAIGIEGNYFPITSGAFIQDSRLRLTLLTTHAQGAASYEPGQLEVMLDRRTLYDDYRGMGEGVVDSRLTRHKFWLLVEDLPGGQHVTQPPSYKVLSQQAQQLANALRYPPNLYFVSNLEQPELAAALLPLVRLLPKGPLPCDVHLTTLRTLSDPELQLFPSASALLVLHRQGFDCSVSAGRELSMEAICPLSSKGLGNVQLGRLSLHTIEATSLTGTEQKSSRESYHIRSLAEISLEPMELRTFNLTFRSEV
T2 sequence (Q9VKV1 entry or part of it): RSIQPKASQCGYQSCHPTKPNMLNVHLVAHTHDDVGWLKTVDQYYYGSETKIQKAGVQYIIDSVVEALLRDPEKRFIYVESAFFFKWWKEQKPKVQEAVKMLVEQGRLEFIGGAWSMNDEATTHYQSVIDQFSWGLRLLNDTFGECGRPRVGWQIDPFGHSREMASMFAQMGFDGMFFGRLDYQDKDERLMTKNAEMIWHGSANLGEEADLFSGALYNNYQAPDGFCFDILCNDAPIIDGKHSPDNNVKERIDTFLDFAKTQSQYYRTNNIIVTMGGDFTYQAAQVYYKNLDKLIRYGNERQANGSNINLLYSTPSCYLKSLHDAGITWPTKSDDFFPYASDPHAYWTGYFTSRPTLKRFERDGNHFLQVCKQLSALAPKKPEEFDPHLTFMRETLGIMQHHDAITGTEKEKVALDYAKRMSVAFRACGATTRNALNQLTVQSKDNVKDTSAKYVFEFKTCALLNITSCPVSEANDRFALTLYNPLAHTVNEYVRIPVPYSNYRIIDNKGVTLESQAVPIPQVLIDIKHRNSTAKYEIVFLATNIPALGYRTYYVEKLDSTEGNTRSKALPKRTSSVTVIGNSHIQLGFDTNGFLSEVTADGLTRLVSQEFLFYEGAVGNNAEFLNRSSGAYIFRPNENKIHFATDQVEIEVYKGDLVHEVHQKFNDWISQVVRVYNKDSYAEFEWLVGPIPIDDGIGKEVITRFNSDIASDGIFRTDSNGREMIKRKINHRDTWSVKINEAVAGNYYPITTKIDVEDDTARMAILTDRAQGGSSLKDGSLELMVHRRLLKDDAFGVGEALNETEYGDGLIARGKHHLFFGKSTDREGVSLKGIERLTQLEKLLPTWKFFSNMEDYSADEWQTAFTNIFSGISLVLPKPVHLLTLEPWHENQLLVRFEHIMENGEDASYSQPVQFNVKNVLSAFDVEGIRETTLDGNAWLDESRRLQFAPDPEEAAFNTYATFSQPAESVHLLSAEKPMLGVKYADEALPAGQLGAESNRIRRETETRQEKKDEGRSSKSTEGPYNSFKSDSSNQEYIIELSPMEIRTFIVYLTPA
T4 sequence (Q2PJ74 entry or part of it): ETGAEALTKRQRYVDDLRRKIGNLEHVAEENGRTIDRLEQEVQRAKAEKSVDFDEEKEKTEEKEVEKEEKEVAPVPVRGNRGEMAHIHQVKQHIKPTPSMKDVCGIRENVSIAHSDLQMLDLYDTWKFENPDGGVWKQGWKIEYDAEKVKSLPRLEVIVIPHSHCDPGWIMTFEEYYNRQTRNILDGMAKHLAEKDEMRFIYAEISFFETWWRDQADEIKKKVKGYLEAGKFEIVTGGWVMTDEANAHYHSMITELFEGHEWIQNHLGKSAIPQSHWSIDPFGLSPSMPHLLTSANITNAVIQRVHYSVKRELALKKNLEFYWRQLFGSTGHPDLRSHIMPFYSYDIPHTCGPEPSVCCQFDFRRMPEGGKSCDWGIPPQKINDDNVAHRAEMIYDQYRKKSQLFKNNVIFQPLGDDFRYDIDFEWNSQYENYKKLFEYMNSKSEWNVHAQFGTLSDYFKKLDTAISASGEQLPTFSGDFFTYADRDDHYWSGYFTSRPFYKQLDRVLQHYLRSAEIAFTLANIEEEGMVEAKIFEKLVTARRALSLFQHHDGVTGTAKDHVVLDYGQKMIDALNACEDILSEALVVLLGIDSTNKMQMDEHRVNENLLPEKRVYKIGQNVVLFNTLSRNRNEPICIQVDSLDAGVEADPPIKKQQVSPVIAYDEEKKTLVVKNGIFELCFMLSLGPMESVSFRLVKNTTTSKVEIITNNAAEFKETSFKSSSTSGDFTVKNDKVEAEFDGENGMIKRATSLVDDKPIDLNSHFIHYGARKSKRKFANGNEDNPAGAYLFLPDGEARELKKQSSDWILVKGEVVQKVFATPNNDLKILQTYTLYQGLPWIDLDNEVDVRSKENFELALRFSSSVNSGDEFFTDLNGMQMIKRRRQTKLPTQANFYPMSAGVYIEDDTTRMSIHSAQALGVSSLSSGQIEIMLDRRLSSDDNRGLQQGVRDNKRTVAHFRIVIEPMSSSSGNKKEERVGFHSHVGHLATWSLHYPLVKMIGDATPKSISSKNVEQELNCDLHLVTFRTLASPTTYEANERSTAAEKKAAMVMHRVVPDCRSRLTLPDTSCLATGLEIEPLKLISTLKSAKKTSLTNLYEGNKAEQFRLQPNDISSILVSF

Compound | IC50 [1] | IC50 [2, 10] | IC50 [3, 11] | IC50 [5, 12] | SI [IC50 (JBMan)/IC50 (AMAN-2)] [5] | further results
C[C@@H](O)[C@@H]1[C@H](O)[C@H](O)CN1Cc1ccc(I)cc1 [compound 27] | 164 ± 28 µM | 410 ± 80 µM | 13 ± 5.5 µM | 66 ± 10 µM | – | Ki ([1]; Dixon plots, pNP-Man 0.5-4 mM, pH 5.0): 73 µM; Ki ([2]; Dixon plots, pNP-Man 0.5-4 mM, pH 5.2): 263 µM; Ki ([3]; Dixon plots, pNP-Man 0.5-4 mM, pH 6.0): 4.2 µM; Ki [4]: 34 µM; Selectivity index, SI [Ki (JBMan)/Ki (AMAN-2)] ([5]; ratio of Ki values): 2.1
C[C@H](O)[C@@H]1[C@H](O)[C@H](O)CN1Cc1ccc2ccccc2c1 [compound 19] | > 4000 µM | > 4000 µM | 860 ± 140 µM | 1680 ± 75 µM | – | –
C[C@H](O)[C@H]1NC[C@@H](O)[C@H]1O [compound 20] | 105 ± 25 µM | 295 ± 20 µM | 30 ± 5 µM | 48 ± 6 µM | 2.2^b | –
C[C@@H]1[C@H](O)[C@H](O)CN1Cc1ccc(I)cc1 [compound 8] | > 4000 µM | > 4000 µM | 205 ± 35 µM | 385 ± 15 µM | – | –
OC[C@H]1NC[C@@H](O)[C@H]1O [compound 30] | – | – | – | – | 5^b | IC50 [6]: 3.9 ± 0.1 µM; Ki [7]: 2.3 µM; IC50 [7]: 2.3 ± 0.1 µM; IC50 [8]: 30.5 ± 3 µM; IC50 [9]: 10.5 ± 1.3 µM
N-2-naphthylmethyl 1,4-imino-ᴅ-lyxitol [compound 31] | – | – | – | – | 812^b | IC50 [6]: 7.6 ± 1.1 µM; IC50 [7]: 2.4 ± 0.1 µM; IC50 [8]: 845 ± 170 µM; IC50 [9]: 1950 ± 250 µM
C[C@H]1NC[C@@H](O)[C@H]1O [compound 10] | 2880 ± 275 µM | – | – | – | – | IC50 [2]: > 4000 µM; IC50 [3]: 525 ± 25 µM; IC50 [5]: 415 ± 15 µM

Source: PMC10012049, “Synthesis, α-mannosidase inhibition studies and molecular modeling of 1,4-imino-ᴅ-lyxitols and their C-5-altered N-arylalkyl derivatives” (Beilstein Journal of Organic Chemistry, 2023)
